Results from US11369585B2, “Compositions, methods, systems and/or kits for preventing and/or treating neoplasms” (Research Cancer Institute of America, priority 2017, dated 2022).

Legend:
[1] = test system: triple negative breast cancer; details: cited from earlier work
[2] = test system: stage four pancreatic cancer; test: Case study 3: laboratory tests (VEGF, IL-8, TGF, CA 19.9); assay type: in vivo, human; details: two months without epigenetic therapies, Lynparza continued; increased from 8565
From the text: (§1) This is a case study of a person with history of stage four pancreatic cancer who was diagnosed after abdominal pain, with adenocarcinoma of pancreas metastasized to their liver. They had explored all potential therapies and their oncologist had given them less than 3 months to live and had referred them to hospice.
They were immediately started on daily IV epigenetic therapies in combination with PARP inhibitors, which they received for two weeks after which their laboratory tests were repeated.
(§2) After two weeks of epigenetic therapies, his VEGF decreased from 248 to 70.
(§3) Thus, Lynparza alone was not sufficient to retard tumor growth. Upon their return to the clinic, their tumor marker CA 19.9 was analyzed.

[3] = test system: adenocarcinoma of pancreas metastasized to liver; test: Case study 3: clinical course; assay type: in vivo, human; details: epigenetic therapies stopped, Lynparza continued
From the text: as §1
They were able to walk again independently. They started to do clinically well. […] Edema in their lower extremities improved.
as §3

[4] = test system: cfDNA somatic alterations; test: Case study 3: Guardant360 % cfDNA with somatic alterations; assay type: in vivo, human; details: Lynparza alone
From the text: Therefore, clinical correlation is advised.
as §2
For example, KRAS mutant allele frequency (MAF) decreased from over 50 percent to 5.6, TP53 decreased from over 50 percent down to 5.1 percent (FIG. 19).

[5] = test system: serous ovarian carcinoma lesions; test: Case study 2: whole body PET scan and abdominal CT scan restaging; details: Niraparib 300 mg daily only
[6] = test system: glioma cells; details: cited from earlier work
[7] = cited from earlier work
[8] = abdominal CT about one month after stopping epigenetic therapies, from 16 mm

SMILES: NC(=O)c1ccc(I)c([N+](=O)[O-])c1 [Iniparib]
- phase II trial outcome ([1]; in vivo): promising results
- survival in phase III trial ([1]; patients also received cytotoxic chemotherapy): no improvement in survival

SMILES: O=C(c1cc(Cc2n[nH]c(=O)c3ccccc23)ccc1F)N1CCN(C(=O)C2CC2)CC1 [Lynparza]
- tumor marker CA 19.9 [2]: 45988
- disease course [3]: their disease progressed
- cfDNA gene alterations (FGF2, C Myc, EGFR, PI3K, CDK4, CDK6, NF-1, KIT, TP53, PDGF, KRAS, BRCA1) [4]: did not change

SMILES: NC(=O)c1cccc2cn(-c3ccc([C@@H]4CCCNC4)cc3)nc12 [Niraparib]
- abdominal mesenteric artery LN size [5, 8]: 28 mm
- retroperitoneal node size [5, 8]: 21 mm
- periaortic nodes size ([5]; abdominal CT about one month after stopping epigenetic therapies, from 24 mm): 32 mm
- overall response on abdominal CT scan ([5]; about one month after stopping epigenetic therapies): mixed response with progression

SMILES: O=c1c(O)c(-c2ccc(O)c(O)c2)oc2cc(O)cc(O)c12 [quercetin]
- effect on angiogenesis [6]: suppression of angiogenesis
- water solubility [7]: not water soluble
